Legend:
[1] = molecular target: T1, human cloned 5-HT2A receptor, expressed in L929 cells (Homo sapiens, UniProt P28223); test: In vitro binding affinity for 5-HT2A receptor ([125I]R91150 radioligand binding); conditions: human cloned 5-HT2A receptor in L929 cells, [125I]R91150; for IC50: read-out: 5-HT2A pIC50 (converted)
T1 construct: expressed in transfected cells; host or cells: L929 cells
Procedure: In Vitro Binding Affinity for 5-HT2A and 5-HT2C Receptors
The interaction of the compounds of Formula (I) with 5-HT2A and 5-HT2C receptors was assessed in in vitro radioligand binding experiments. […] During the incubation, the radioligands bind to the receptor. When equilibrium of binding is reached, the receptor bound radioactivity is separated from the non-bound radioactivity, and the receptor bound activity is counted. The interaction of the test compounds with the receptors is assessed in competition binding experiments. Various concentrations of the test compound are added to the incubation mixture containing the tissue preparation and the radioligand. Binding of the radioligand will be inhibited by the test compound in proportion to its binding affinity and its concentration. The affinities of the compounds for the 5-HT2 receptors were measured by means of radioligand binding studies conducted with: (a) human cloned 5-HT2A receptor, expressed in L929 cells using [^125I]R91150 as radioligand and (b) human cloned 5-HT2C receptor, expressed in CHO cells using [^3H]mesulergine as radioligand.

[2] = molecular target: T2, human cloned 5-HT2C receptor, expressed in CHO cells (Homo sapiens, UniProt P28335); test: In vitro binding affinity for 5-HT2C receptor ([3H]mesulergine radioligand binding); conditions: human cloned 5-HT2C receptor; for IC50: read-out: 5-HT2C pIC50 (converted)
T2 construct: expressed in transfected cells; host or cells: CHO cells
T2 sequence (P28335 33-458): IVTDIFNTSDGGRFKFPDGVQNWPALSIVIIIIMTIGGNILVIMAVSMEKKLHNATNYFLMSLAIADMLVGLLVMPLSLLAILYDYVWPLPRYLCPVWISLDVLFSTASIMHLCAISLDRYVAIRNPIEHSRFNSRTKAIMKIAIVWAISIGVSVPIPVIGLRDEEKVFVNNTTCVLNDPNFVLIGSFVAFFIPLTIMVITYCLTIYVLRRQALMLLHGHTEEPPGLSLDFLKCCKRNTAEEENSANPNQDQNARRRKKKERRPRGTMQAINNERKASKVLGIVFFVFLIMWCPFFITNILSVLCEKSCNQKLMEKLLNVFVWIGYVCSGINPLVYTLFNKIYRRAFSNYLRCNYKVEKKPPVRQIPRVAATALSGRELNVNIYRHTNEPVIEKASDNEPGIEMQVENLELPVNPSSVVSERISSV
Summary of the method: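 Receptor-bound radioligand counted after separation from unbound label once equilibrium is reached. Test compound added across a concentration range to tissue preparation plus radioligand; inhibition of binding reflects affinity and concentration.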

[3] = molecular target: T3, human Dopamine D2L receptor (Homo sapiens, UniProt P14416); test: In vitro binding affinity for human D2L receptor ([3H]Spiperone binding); conditions: human D2L receptor-transfected CHO cell membranes; for IC50: read-out: D2L pIC50 (converted)
T3 construct: expressed in transfected cells; host or cells: CHO cells
T3 sequence (P14416 whole entry): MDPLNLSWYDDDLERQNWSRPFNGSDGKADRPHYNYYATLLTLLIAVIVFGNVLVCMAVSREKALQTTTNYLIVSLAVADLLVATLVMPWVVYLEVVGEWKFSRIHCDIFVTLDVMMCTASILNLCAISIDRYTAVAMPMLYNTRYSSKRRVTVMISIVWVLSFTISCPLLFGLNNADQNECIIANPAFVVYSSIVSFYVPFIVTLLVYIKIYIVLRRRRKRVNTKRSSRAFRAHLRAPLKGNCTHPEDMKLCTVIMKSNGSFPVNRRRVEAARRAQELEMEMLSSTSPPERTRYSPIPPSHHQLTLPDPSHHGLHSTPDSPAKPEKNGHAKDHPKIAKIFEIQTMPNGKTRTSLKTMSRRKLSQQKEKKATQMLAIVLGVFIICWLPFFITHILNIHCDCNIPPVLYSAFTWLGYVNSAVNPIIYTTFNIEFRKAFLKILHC
Summary of the method: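 Competition curves were expressed as percent specific binding, measured by scintillation counting after filtration onto GF/B filters and ice-cold Tris washes. Test compounds competed with [3H]Spiperone, added from a 2 nmol/L dilution, for 30 min at 37° C on transfected CHO membranes in pH 7.7 Tris-HCl salt buffer. Butaclamol at 10^−6 mol/l final marked non-specific binding.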

[4] = molecular target: T4, NET (norepinephrine transporter) (Rattus norvegicus, UniProt Q63380); test: In vitro determination of NET reuptake inhibition ([3H]Nixosetine binding, rat brain cortex); conditions: rat brain cortex; for IC50: read-out: NET pIC50 (converted)
T4 construct: Cortex from rat brain was collected and homogenised; from tissue; host or cells: rat brain cortex
T4 sequence (Q63380 1-617): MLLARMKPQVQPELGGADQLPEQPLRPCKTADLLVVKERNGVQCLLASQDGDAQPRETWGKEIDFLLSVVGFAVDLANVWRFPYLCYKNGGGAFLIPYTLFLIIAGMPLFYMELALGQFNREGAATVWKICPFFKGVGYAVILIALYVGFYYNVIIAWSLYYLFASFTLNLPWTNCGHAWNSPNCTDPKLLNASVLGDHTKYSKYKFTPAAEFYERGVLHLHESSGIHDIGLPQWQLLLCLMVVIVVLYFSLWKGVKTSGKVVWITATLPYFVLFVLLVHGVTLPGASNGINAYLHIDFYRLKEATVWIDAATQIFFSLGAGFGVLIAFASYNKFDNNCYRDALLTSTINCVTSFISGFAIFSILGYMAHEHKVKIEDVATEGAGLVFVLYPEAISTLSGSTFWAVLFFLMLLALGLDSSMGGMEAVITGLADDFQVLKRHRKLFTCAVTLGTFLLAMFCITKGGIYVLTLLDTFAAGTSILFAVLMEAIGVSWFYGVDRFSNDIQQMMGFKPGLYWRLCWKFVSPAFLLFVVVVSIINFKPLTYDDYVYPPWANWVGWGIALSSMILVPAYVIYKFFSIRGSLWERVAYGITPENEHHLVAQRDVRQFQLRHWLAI
Summary of the method: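 Competition curves and percentage specific binding came from scintillation counting of filter-trapped radioactivity. The membranes were rat cortical homogenate in pH 7.4 Tris buffer with 120 mM NaCl and 5 mM KCl. Test compounds competed with [3H]nisoxetine for binding.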

T1 sequence (P28223 whole entry): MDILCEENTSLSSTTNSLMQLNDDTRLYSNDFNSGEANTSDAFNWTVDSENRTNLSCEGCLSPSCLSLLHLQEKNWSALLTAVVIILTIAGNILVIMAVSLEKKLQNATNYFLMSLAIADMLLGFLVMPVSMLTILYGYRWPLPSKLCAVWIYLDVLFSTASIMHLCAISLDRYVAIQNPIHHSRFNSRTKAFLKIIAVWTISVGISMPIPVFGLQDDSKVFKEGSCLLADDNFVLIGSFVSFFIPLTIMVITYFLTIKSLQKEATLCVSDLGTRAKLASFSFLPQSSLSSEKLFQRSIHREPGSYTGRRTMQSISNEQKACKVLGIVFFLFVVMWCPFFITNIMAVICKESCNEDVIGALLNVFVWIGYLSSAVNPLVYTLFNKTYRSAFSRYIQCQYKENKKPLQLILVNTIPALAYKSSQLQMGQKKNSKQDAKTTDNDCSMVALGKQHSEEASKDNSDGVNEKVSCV

IC50 [1]	IC50 [2]	IC50 [3]	IC50 [4]	Compound	5-HT2A pIC50 [1]	5-HT2C pIC50 [2]	D2L pIC50 [3]	NET pIC50 [4]
< 10 nM	2.95 nM	141 nM	1620 nM	O=C1CCN(C[C@H]2C[C@@H]3c4ccccc4Cc4ccc(F)cc4[C@@H]3O2)C1 [Compound 7, [2R-(2α, 3aα, 12bβ)]1-(11-fluoro-3,3a,8,12b-tetrahydro-2H-1-oxa-dibenzo[e,h]-azulen-2-ylmethyl)-pyrrolidin-3-one]				
1.45 nM	1.7 nM	4.07 nM	501 nM	OCCC1CCN(CC2CC3c4ccccc4Cc4ccc(F)cc4C3O2)C1 (mixture of isomers) [Compound 6]				
23.4 nM	33.1 nM	355 nM	> 10000 nM	CCOC(=O)C1CCCCN1CC1CC2c3ccccc3Cc3ccc(F)cc3C2O1 (mixture of isomers) [Compound 158]				
3.16 nM	10.5 nM	66.1 nM	3470 nM	O=C(C1CCN(CC2CC3c4ccccc4Cc4ccc(F)cc4C3O2)CC1)N1CCN(CC=Cc2ccccc2)CC1 (stereo not shown) [Compound 204]				
0.724 nM	5.75 nM	13.2 nM	6460 nM	CC(C)(C)NC(=O)C1CCN(CC2CC3c4ccccc4Cc4ccc(F)cc4C3O2)CC1 (stereo not shown) [Compound 173]				
3.16 nM	2.88 nM	13.8 nM	1620 nM	N#CCCC1CCCN(CC2CC3c4ccccc4Cc4ccc(F)cc4C3O2)C1 (mixture of isomers) [Compound 169]				
16.6 nM	11.5 nM	81.3 nM	> 10000 nM	OCC1CCCCN1CC1CC2c3ccccc3Cc3ccc(F)cc3C2O1 (mixture of isomers) [Compound 146]				
6.46 nM	1.2 nM	35.5 nM	> 10000 nM	CCN(CC)CCN(C)C(=O)C1CCN(CC2CC3c4ccccc4Cc4ccc(F)cc4C3O2)CC1 (stereo not shown) [Compound 199]				
< 10 nM	9.33 nM	10 nM	282 nM	OC1CCN(CC2CC3c4ccccc4Sc4ccc(F)cc4C3O2)C1 (racemic) [Compound 44]				
< 10 nM	4.47 nM	11.7 nM	9770 nM	C=CCN(C)C(=O)C1CCN(CC2CC3c4ccccc4Cc4ccc(F)cc4C3O2)CC1 (stereo not shown) [Compound 177]				
1.2 nM	4.07 nM	3.98 nM	2880 nM	CCOC(=O)CNC(=O)NC1CCN(CC2CC3c4ccccc4Cc4ccc(F)cc4C3O2)CC1 (stereo not shown) [Compound 242]				
				O=C(O)C(=O)O.OCC1CCCN(C[C@H]2C[C@@H]3c4ccccc4Cc4ccc(F)cc4[C@@H]3O2)C1 (single isomer, unassigned) [Compound 149]	9.08	9.10	8.61	<5.52
0.759 nM	1.74 nM	18.2 nM	> 10000 nM	O=C(NCCCO)C1CCN(CC2CC3c4ccccc4Cc4ccc(F)cc4C3O2)CC1 (stereo not shown) [Compound 175]				
				CC1CN(CC2CC3c4ccccc4Cc4ccc(F)cc4C3O2)C(C)CN1.O=C(O)C(=O)O (mixture of isomers) [Compound 280]	6.53	6.53	5.40	<5
2.09 nM	10.2 nM	24.5 nM	1510 nM	Fc1ccc2c(c1)C1OC(CN3CCC(NC(=S)NCCN4CCOCC4)CC3)CC1c1ccccc1C2 (stereo not shown) [Compound 253]				
9.12 nM	9.55 nM	9.12 nM	4570 nM	CN(C)C1CCN(CC2CC3c4ccccc4Cc4ccc(F)cc4C3O2)C1 (mixture of isomers) [Compound 9]				
1.41 nM	5.75 nM	25.1 nM	3890 nM	COC(=O)C(Cc1ccc(Cl)cc1)NC(=O)C1CCN(CC2CC3c4ccccc4Cc4ccc(F)cc4C3O2)CC1 (mixture of isomers) [Compound 184]				
1.91 nM	2.88 nM	7.24 nM	1450 nM	O=C(NC1CCCCC1)OCC1CCN(CC2CC3c4ccccc4Cc4ccc(F)cc4C3O2)C1 (mixture of isomers) [Compound 21]				
				N#CC1CCCN(C[C@H]2C[C@@H]3c4ccccc4Cc4ccc(F)cc4[C@@H]3O2)CC1.O=C(O)C(=O)O.O=C(O)C(=O)O (mixture of isomers) [Compound 268]	8.52	8.24	7.92	<5
0.832 nM	1.41 nM	3.63 nM	1050 nM	CCNC(=O)OCC1CCN(CC2CC3c4ccccc4Cc4ccc(F)cc4C3O2)C1 (mixture of isomers) [Compound 20]				
				O=C(O)C(=O)O.OCC1CCCN(C[C@H]2C[C@@H]3c4ccccc4Cc4ccc(F)cc4[C@@H]3O2)C1 (single isomer, unassigned) [Compound 148]	8.87	8.71	8.35	<5

Compound	IC50 [1]	IC50 [2]	IC50 [3]	IC50 [4]	5-HT2A pIC50 [1]	5-HT2C pIC50 [2]	D2L pIC50 [3]	NET pIC50 [4]
O=C(c1cccs1)N1CCN(CC2CC3c4ccccc4Cc4ccc(F)cc4C3O2)CC1 (stereo not shown) [Compound 81]	0.724 nM	5.01 nM	35.5 nM	> 10000 nM				
CCC(C)(C)NC(=O)N1CCN(CC2CC3c4ccccc4Cc4ccc(F)cc4C3O2)CC1 (stereo not shown) [Compound 90]	1.62 nM	20 nM	30.9 nM	4470 nM				
Fc1ccc2c(c1)C1OC(CN3CCN(c4nc5ccccc5[nH]4)CC3)CC1c1ccccc1C2 (stereo not shown) [Compound 127]	0.251 nM	4.17 nM	22.4 nM	3800 nM				
Fc1ccc2c(c1)[C@@H]1O[C@@H](CN3CCC4(CC3)OCCO4)C[C@@H]1c1ccccc1C2 [Compound 278]	1.62 nM	9.77 nM	2.29 nM	> 10000 nM				
Fc1ccc2c(c1)C1OC(CN3CCN(Cc4ccco4)CC3)CC1c1ccccc1C2 (stereo not shown) [Compound 60]	7.76 nM	25.1 nM	6.31 nM	1550 nM				
Fc1ccc2c(c1)C1OC(CN3CCN(c4ncccc4C(F)(F)F)CC3)CC1c1ccccc1C2 (stereo not shown) [Compound 121]	13.2 nM	77.6 nM	77.6 nM	3550 nM				
O=S(=O)(Cc1ccccc1)N1CCN(CC2CC3c4ccccc4Cc4ccc(F)cc4C3O2)CC1 (stereo not shown) [Compound 105]	4.68 nM	30.9 nM	4.07 nM	> 10000 nM				
CN1c2ccccc2C2CC(CN3CCC(O)C3)OC2c2ccccc21 (racemic) [Compound 263]	251 nM	13.2 nM	550 nM	2880 nM				
CCS(=O)(=O)N1CCN(CC2CC3c4ccccc4Cc4ccc(F)cc4C3O2)CC1 (stereo not shown) [Compound 103]	7.76 nM	50.1 nM	19.5 nM	> 10000 nM				
Fc1ccc2c(c1)C1OC(CN3CCN(C(=S)NC4CCCCC4)CC3)CC1c1ccccc1C2 (stereo not shown) [Compound 114]	6.17 nM	20.9 nM	45.7 nM	1100 nM				
CC(C)NC(=O)N1CCN(CC2CC3c4ccccc4Cc4ccc(F)cc4C3O2)CC1 (stereo not shown) [Compound 88]	0.38 nM	5.5 nM	22.9 nM	6460 nM				
COCC1(O)CCN(C[C@H]2C[C@@H]3c4ccccc4Cc4ccc(F)cc4[C@@H]3O2)CC1 [Compound 272]	1.23 nM	0.741 nM	2.14 nM	724 nM				
Fc1ccc2c(c1)C1OC(CN3CCN(Cc4cccc5ccccc45)CC3)CC1c1ccccc1C2 (stereo not shown) [Compound 75]	17.4 nM	97.7 nM	63.1 nM	1620 nM				

Reference: US8569267B2, “Tetracyclic tetrahydrofuran derivatives containing cyclic amine side chain” (Janssen Pharmaceutica, NV, priority 2005, dated 2013)
